The target in test [1] is T1, TRH receptor (TRH-R) expressed in Xenopus oocytes (Mus musculus, UniProt P21761).
T1 construct: injected with RNA transcribed in vitro from the plasmid containing the TRH-R cDNA (pBSmTRHR); expressed in transfected cells; host or cells: Xenopus laevis oocytes injected with in vitro transcribed RNA from pBSmTRHR
T1 sequence (P21761 1-393): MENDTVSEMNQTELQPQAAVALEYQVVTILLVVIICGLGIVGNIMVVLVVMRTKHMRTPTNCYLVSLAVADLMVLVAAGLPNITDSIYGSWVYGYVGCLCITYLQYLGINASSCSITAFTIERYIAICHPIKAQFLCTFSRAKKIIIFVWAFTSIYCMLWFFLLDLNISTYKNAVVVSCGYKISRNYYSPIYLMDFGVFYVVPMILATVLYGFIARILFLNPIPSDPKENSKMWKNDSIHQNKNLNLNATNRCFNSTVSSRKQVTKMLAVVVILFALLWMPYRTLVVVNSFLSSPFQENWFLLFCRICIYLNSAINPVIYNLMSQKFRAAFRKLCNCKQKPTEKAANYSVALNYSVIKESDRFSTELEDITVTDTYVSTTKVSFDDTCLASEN
The experiment in a line: Competition for [3H]methylTRH binding to intact Xenopus oocytes injected with RNA transcribed in vitro from pBSmTRHR.
Procedure: FIG. 2 depicts TRH (the filled squares) and chlordiazepoxide (the unfilled circles) competion for the binding of [^3 H]methylTRH to oocytes expressing TRH receptors 3 days after injection of 5 ng of in vitro transcribed RNA. The results are presented in this figure as mean ± S.E. of duplicate determinations.
Xenopus oocytes were injected with 5 ng of sense RNA transcripts ans assayed for specific binding of TRH and electrophysiological responses to TRH. Binding to intact oocytes was performed as described in the literature [see Molecular Endocrinology 3:9070 (1989)], using 2 nM [^3 H]methylTRH as the labeled ligand, and unlabeled TRH and chlordiazepoxide as competitive inhibitors.
Five to 10 oocytes were incubated at 4° C. in 0.2 ml OR-2 containing 40 nm [^3 H]methylTRH without or with 1 μl unlabeled TRH for up to 3 hours. Oocytes were washed 7 times with 4 ml ice-cold OR-2 solution and radioactivity measured by liquid scintillation counting. Specific binding was calculated by subtracting radioactivity bound in the presence from that in the absence of unlabeled TRH. Nonspecific binding was between 30 and 45% of total binding.

In test [2] the target is T2, TRH-R expressed in COS-1 cells (Mus musculus, UniProt P21761).
T2 construct: the entire TRH-R cDNA, according to the present invention, contained in a Not I/HindIII fragment was cloned directly into the eukaryotic expression vector pCDM8; expressed in transfected cells; host or cells: COS-1 cells transfected with pCDM8mTRHR
T2 sequence (P21761 1-393): T1 sequence (P21761 1-393)
The experiment in a line: Competition for [3H]methylTRH binding in COS-1 cells transfected with pCDM8mTRHR. Conditions: 48 hours, read-out: K3 (Ki) for displacement of [3H]methylTRH binding. How it is done: In FIGS. 6 and 7, COS-1 cells were transfected with the TRH-R cDNA according to the present invention, in the mammalian expression vector pCDM8 (pCDM8m TRHR) and assayed for binding and responses 48 hours later. Specifically, FIG. 6, depicts the TRH (filled squares) and chlordiazepoxide (unfilled circles) competition for the binding of [^3 H]methylTRH. COS-1 cells transfected with pCDM8mTRHR were assayed for the binding of [^3 H]methylTRH in the presence of increasing amounts of either unlabeled TRH or chlordiazepoxide. Results are presented as mean ± range of data from duplicate determinations in one of two similar experiments. In FIG. 7, COS-1 cells transfected with pCDM8mTRHR were labeled with myo-[^3 H]inositol for 48 hours, washed, and tested for dose-dependent stimulation of inositol phosphate production by TRH. The results are presented as mean ± S.D. of triplicate determinations from one of two similar experiments. […]
No specific binding or TRH stimulated inositol phosphate formation was detectable in untransfected COS-1 cells or cells transfected with pCDM8 alone. As depicted in FIG. 6, [^3 H]methylTRH binding and displacement by TRH and chlordiazepoxide were measured. […]

Test [3] has as its target T2, TRH-R expressed in COS-1 cells. The experiment in a line: TRH-stimulated inositol phosphate formation in COS-1 cells transfected with pCDM8mTRHR. The format is cell-based. Conditions: labeled with myo-[3H]inositol 48 hours.
Procedure: In FIGS. 6 and 7, COS-1 cells were transfected with the TRH-R cDNA according to the present invention, in the mammalian expression vector pCDM8 (pCDM8m TRHR) and assayed for binding and responses 48 hours later. […] In FIG. 7, COS-1 cells transfected with pCDM8mTRHR were labeled with myo-[^3 H]inositol for 48 hours, washed, and tested for dose-dependent stimulation of inositol phosphate production by TRH. The results are presented as mean ± S.D. of triplicate determinations from one of two similar experiments.
COS-1 cells were transfected using the DEAE dextran method, and after 48 to 72 hours the cells were assayed for [^3 H]methylTRH binding and TRH stimulated inositol phosphate formation.
On the day prior to transfection, 35 mm, 6 well tissue culture plates were seeded with 6×10^5 in DMEM with 10% FCS; cells should be just subconfluent for transfection. A transfection cocktail was prepared: supercoiled plasmid DNA (ethanol precipitated if necessary) was resuspended in 0.3 ml PBS, and then vortexed. 0.1 ml DEAE-dextran was added to bring the final concentration to 0.5 mg/ml, and the solution mixed thoroughly. The tissue culture medium was aspirated from the cell cultures and the COS cells were rinsed twice with 2 ml of PBS warmed to 37° C. […]
Test [4] has as its target T3, TRH-R expressed in Xenopus oocytes (Mus musculus, UniProt P21761).
T3 construct: injected with RNA transcribed in vitro from the plasmid containing the TRH-R cDNA (pBSmTRHR); expressed in transfected cells; host or cells: Xenopus laevis oocytes injected with in vitro transcribed RNA from pBSmTRHR
T3 sequence (P21761 1-393): T1 sequence (P21761 1-393)
The test is described as follows: Electrophysiological response to TRH in voltage-clamped Xenopus oocytes injected with RNA transcribed from the TRH-R cDNA. The format is cell-based. The note with it: 3 days after injection of 5 ng RNA. The procedure:
FIG. 3 more specifically depicts the concentration-response relationship of Xenopus oocytes 3 days following injection of 5 ng of in vitro transcribed RNA. In FIG. 3, the results are presented from two experiments with N≥6.
A single oocyte, in a 0.4 ml perfusion chamber, was impaled with two standard glass electrodes filed with 3M KCl and maintained under voltage clamp using a Dagan 8500 intracellular clamp. Drugs were included in the perfusate and applied at a flow rate of 8 ml/min. The apparent latency is the time between achieving greater than 80% of the perfusate concentration in the perfusion chamber (5.5 sec after switching to TRH) and the initial deflection of the pen on the chart recorder due to membrane depolarization.
RNA was injected (25-50 nl) at the equator of oocytes, and responses were tested 24 to 72 hours after injection.
This dose dependency is the same as that observed in GH3 cells when rapid effects of TRH, such as generation of inositol 1,4,5-triphosphate or elevation of cytoplasmic calcium, were measured [see J Biol Chem 261:2712 (1986) and J Biol Chem 259:5827 (1984)].

In a further test the test system is pituitary TRH-R. Conditions: Neuroendocrinology 32:310 (1981); cited from earlier work.

Read-outs that look alike come from different tables or passages of the source.

On to `NC(=O)[C@@H]1CCCN1C(=O)[C@H](Cc1cnc[nH]1)NC(=O)[C@@H]1CCC(=O)N1` [TRH, thyrotropin releasing hormone], for which the values for the Ki in test [1] and in test [2] were approximately 30 nM and 10 nM, respectively. Also, the EC50 in test [3] is approximately 10 nM; in test [4] (read-out: TRH concentration giving half-maximal electrophysiological response), 10 nM. In addition, in test [4], the “lowest TRH concentration that evoked an electrophysiological response” value is on record as 1 nM. Further, the EC100 in test [4] (read-out: TRH concentration giving maximum electrophysiological response) was found to be 0.1 µM.
As to `CNC1=Nc2ccc(Cl)cc2C(c2ccccc2)=[N+]([O-])C1` [chlordiazepoxide], the Ki in test [1] (Xenopus oocytes, 3 days after injection of 5 ng in vitro transcribed RNA, calculated, approximate, read-out: apparent inhibition constant (Ki) for inhibition of [3H]methylTRH binding) was approximately 3000 nM; in test [2], 20000 nM.
Consider [^3 H]methylTRH, for which the “affinity relative to TRH for the pituitary TRH-R (higher)” value in the test with pituitary TRH-R is given as 10 fold.

Values taken from patent US5288621A, “Pituitary TRH receptor” (Cornell Research Foundation, Inc., priority 1990, dated 1994).
